Measured values taken from patent publication US11458212B2, “Molecular imaging of cancer cells in vivo” (H. Lee Moffitt Cancer Center and Research Institute, Inc., priority 2011, dated 2022).
Read-outs that look alike come from different tables or passages of the source.

Columns and labels:
[1] = test system: Trp1455/9M-specific CD8 T cells; assay: In vivo cellular immune response assay (immune adjuvant); parameters: species or system B6 mice; conditions: for fluorescence of stained tetramer positive CD8 T cells: day 7; for maximum amount of fluorescently stained tetramer positive CD8 T cells: day 7, peripheral blood, i.v. immunization, n=3
Protocol: To assess the efficacy of T-02 as an immune adjuvant, mice were immunized i.v. with a mixture of 100 μg optimized Trp1455/9M peptide (Guevara-Patino, J. A., et al. J Clin Invest, 2006. 116(5):1382-90), 50 μg anti-CD40 mAb (Clone; FGk-45.5), and 50 μg TLR-2 peptide (T-02, Pam2CSK4, or Pam3CSK4). […] The response of tetramer+ CD8 T cells in the blood was measured on day 7, 21, and 34 by tetramer staining. For tetramer staining, peripheral blood was taken from the submandibular vein and treated briefly with ammonium chloride buffer to lyse red blood cells. Blood cells were stained with FITC-conjugated anti-MHC class II, PerCP Cy5.5-conjugated CD8a (both from eBioscience, San Diego, Calif.), and phycoerythrin-conjugated Trp1455/9M/H-2D^b tetramers (provided by the NIH tetramer Facility, Emory University, Atlanta Ga.) for 40 min in ice. Fluorescence was evaluated using a FACSCalibur™ flow cytometer (BD Biosciences) and analyzed using FlowJo software.
C57BL/6 (B6) mice 6-8 weeks old were purchased from Charles River (Wilmington, Mass.). To assess the efficacy of 10 as an immune adjuvant, B6 mice were immunized i.v. with a mixture (in a volume of 200 μl) of 100 μg optimized Trp1455/9M peptide,[10c] 50 μg anti-CD40 monoclonal antibody (Clone; FGk-45.5), and 50 μg TLR2 agonist (10, Pam2CSK4, or Pam3CSK4). […] The response of tetramer positive CD8 T cells in the blood was measured on day 7, 21 and 34 by tetramer staining. For tetramer staining, peripheral blood was taken from the submandibular vein and treated briefly with ammonium chloride buffer to lyse red blood cells. Blood cells were stained with FITC-conjugated anti-MHC class II, PerCP Cy5.5-conjugated CD8a, and phycoerythrin-conjugated Trp1455/9M/H-2D^b tetramers for 40 min in ice. Fluorescence was evaluated using a FACSCalibur flow cytometer (BD Biosciences) and analyzed using FlowJo software.

TLR2 = TLR2 (Homo sapiens, UniProt O60603); assay: In vitro TLR2 functional bioassay (NF-κB luciferase, HEK293/hTLR2 cells); format: cell-based; parameters: host or cells: HEK293 stably transfected with pUNO-hTLR2, transiently transfected with the pNifty-Luc reporter
Sequence of TLR2 (O60603 21-784): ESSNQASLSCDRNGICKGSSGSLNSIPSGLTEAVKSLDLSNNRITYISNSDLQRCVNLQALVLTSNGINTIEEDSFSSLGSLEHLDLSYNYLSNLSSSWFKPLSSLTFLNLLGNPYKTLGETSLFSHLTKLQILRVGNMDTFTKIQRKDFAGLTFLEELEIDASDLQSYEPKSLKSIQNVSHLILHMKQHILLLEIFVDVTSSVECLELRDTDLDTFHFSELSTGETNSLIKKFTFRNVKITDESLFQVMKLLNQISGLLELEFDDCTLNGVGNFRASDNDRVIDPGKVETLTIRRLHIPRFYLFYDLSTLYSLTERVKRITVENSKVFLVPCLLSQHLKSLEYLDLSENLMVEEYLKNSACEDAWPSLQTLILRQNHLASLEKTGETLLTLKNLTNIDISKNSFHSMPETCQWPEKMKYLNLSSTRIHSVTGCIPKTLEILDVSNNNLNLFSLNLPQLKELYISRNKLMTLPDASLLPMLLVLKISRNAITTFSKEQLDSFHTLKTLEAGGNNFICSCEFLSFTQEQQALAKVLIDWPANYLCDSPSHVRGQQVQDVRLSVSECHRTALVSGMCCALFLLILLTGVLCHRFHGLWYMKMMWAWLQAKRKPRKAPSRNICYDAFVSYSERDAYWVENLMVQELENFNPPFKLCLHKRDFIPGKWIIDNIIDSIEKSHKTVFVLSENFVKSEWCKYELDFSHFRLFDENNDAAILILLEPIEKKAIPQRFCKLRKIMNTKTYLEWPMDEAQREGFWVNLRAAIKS
Sequence of TLR2 (Q9Y2C9 32-796 partner): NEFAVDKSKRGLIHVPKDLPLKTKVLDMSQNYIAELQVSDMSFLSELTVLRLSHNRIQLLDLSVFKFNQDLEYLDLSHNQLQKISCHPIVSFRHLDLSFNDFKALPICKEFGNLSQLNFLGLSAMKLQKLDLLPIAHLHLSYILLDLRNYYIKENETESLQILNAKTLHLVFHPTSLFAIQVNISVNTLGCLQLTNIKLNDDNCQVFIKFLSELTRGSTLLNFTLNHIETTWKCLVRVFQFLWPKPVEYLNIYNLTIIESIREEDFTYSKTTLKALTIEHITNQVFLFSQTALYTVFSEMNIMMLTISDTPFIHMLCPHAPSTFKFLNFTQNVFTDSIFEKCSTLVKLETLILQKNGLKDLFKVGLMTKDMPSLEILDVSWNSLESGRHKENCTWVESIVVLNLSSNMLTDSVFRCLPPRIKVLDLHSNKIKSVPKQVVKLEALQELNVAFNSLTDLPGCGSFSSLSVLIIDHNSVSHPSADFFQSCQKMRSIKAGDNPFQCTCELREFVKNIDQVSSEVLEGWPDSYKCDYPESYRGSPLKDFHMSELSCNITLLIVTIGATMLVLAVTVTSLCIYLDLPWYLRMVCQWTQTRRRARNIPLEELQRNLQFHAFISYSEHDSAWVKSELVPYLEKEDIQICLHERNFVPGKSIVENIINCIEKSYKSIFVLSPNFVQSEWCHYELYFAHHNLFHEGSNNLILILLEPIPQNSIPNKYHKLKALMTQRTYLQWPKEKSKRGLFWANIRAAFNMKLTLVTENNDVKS
Text: In Vitro TLR2 Functional Bioassay The in vitro TLR2 functional bioassay was developed and optimized for use in screening soluble compound libraries to identify both TLR2 agonists and antagonists. In this study, the TLR2 functional bioassay was used as a fast high throughput screening to identify TLR2 agonist ligands by measuring the inducing activity of NF-κB. HEK293/hTLR2 cells, highly overexpressing human TLR2, were used along with the parental HEK293, cells as a negative control. Cells were seeded at a density of 40,000 per well using a WellMate® Microplate dispenser (Thermo Fischer Scientific/Matrix) in black 96-well plates with opaque white wells (Perkin Elmer Wallac, Waltham, Mass.) and then incubated at 37° C. On day 2, the cells were transiently transfected with pNifty-Luc (InvivoGen), an NF-κB inducible reporter plasmid expressing the luciferase reporter gene (Zuany-Amorim, C., J., et al. Nat Rev Drug Discov, 2002. 1(10):797-807), using an optimized 4:1 ratio by volume of Fugene® HD Transfection Reagent (Roche Applied Science, Indianapolis, Ind.) to pNifty-Luc plasmid DNA (1 μg/mL). […] On day 4 after 24 hrs of peptide stimulation, luciferase induced activity by the induction of NF-κB was measured. Media was aspirated from the wells using an ELx405 Select plate washer (BioTek, Winooski, Vt.), 150 μg/mL D-luciferin (Gold Biotechnology, St. Louis, Mo.) was dispensed using the microplate dispensor; the plates were incubated at 37° C. for 5 min. The luminescence intensity was measured using the standard luminescence protocol on a Victor™ X4 plate-reader equipped with a plate stacker for readout of multiple plates at a time (PerkinElmer, Waltham, Mass.). For each in vitro TLR2 bioassay, at least three different experiments were performed in triplicate (n=3+). Data were analyzed with GraphPad Prism software and curves were generated with the appropriate nonlinear fit regression analysis.
The in vitro TLR2 functional bioassay was developed and optimized for use in high-throughput screening of soluble compound libraries to identify both TLR2 agonists and antagonists. The bioassay measures the induction of NF-κB signaling via TLR2 in HEK-293/hTLR2 cells and parental HEK-293 cells as a negative control. Cells were seeded at a density of 40,000 per well using a WellMate Microplate dispenser (Thermo Fisher Scientific/Matrix) in black 96-well plates with opaque white wells (PerkinElmer, Waltham, Mass.) and then incubated at 37° C. On day 2, the cells were transiently transfected with pNifty-Luc (InvivoGen, San Diego, Calif.), an NF-κB inducible reporter plasmid expressing the luciferase reporter gene[28] using an optimized 4:1 ratio by volume of FugeneHD Transfection Reagent (Promega, Madison, Wis.) to pNifty-Luc plasmid DNA (1 μg/mL). […] […] On day 4 after 24 h of peptide stimulation, luciferase induced activity by the induction of NF-κB was measured. Media was aspirated from the wells using an ELx405 Select CW plate washer (BioTek, Winooski, Vt.), 150 μg/mL D-luciferin (Gold Biotechnology, St. Louis, Mo.) was dispensed using the microplate dispensor; the plates were incubated at 37° C. for 5 min. The luminescence intensity was measured using the standard luminescence protocol on a Victor X4 Multilabel plate reader equipped with a plate stacker for readout of multiple plates at a time (PerkinElmer, Waltham, Mass.). […] Data were analyzed with GraphPad Prism software and curves were generated with the appropriate nonlinear fit regression analysis.

[2] = dose-response 0.001 ng/mL to 10 μg/mL, read-out: TLR2 Agonist Activity EC50
[3] = log(agonist) vs. normalized response, doses 0.01 ng/mL to 1 μg/mL, read-out: EC50

| Structure (SMILES) | fluorescence of stained tetramer positive CD8 T cells [1] | maximum amount of fluorescently stained tetramer positive CD8 T cells [1] | luciferase activity relative to cells incubated with no ligand (TLR2; 24 h post ligand stimulation, n=6) | EC50 (TLR2; [2]) | EC50 (TLR2; [3]) |
| --- | --- | --- | --- | --- | --- |
| CCCCCCCCCCCCCCCC(=O)N[C@@H](CSCC(COC(=O)CCCCCCCCCCCCCCC)OC(=O)CCCCCCCCCCCCCCC)C(=O)N[C@@H](CO)C(=O)N[C@@H](CCCCN)C(=O)N[C@@H](CCCCN)C(=O)N[C@@H](CCCCN)C(=O)N[C@@H](CCCCN)C(=O)O (mixture of isomers) [Pam3CSK4, N-Palmitoyl-S-[2,3-bis(palmitoyloxy)-(2RS)-propyl]-[R]-cysteinyl-[S]-seryl-[S]-lysyl-[S]-lysyl-[S]-lysyl-[S]-lysine, reference compound] | High fluorescence | 51.7% | 50 fold | 23 nM | 22.5 nM |
| CCCCCCCCCCCCCCCC(=O)OCC(CSC[C@H](N)C(=O)N[C@@H](CO)C(=O)N[C@@H](CCCCN)C(=O)N[C@@H](CCCCN)C(=O)N[C@@H](CCCCN)C(=O)N[C@@H](CCCCN)C(=O)O)OC(=O)CCCCCCCCCCCCCCC (mixture of isomers) [Pam2CSK4, S-[2,3-bis(palmitoyloxy)-(2RS)-propyl]-[R]-cysteinyl-[S]-seryl-[S]-lysyl-[S]-lysyl-[S]-lysyl-[S]-lysine, reference compound] | High fluorescence | 56.6% |  | 3.7 nM | 3.66 nM |
